Experimental data from US20230157996A1, “SMALL-MOLECULE INHIBITOR TARGETING EB VIRUS NUCLEAR ANTIGEN PROTEIN, PREPARATION METHOD AND USE THEREOF” (priority 2020, published 2023).
Like-named read-outs stand apart in the source and are kept apart here.

Legend:
C666-1 cells [1] = test: C666-1 cell viability single concentration (50 μM) inhibition rate (Resazurin); type: cell-based; settings: Homo sapiens, C6661, 72 h, C666-1 cells
Procedure, shortened: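 EBV-positive C666-1 cells (5×10^3/well), pre-cultured 24 h, were exposed to compound at 50 μmol/L final for 72 h at 37° C, 5% CO2, in duplicate. Viability by resazurin (3 h, ex 560/em 590 nm); inhibition rate computed relative to DMSO control and medium-only blank.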

C666-1 cells [2] = test: C666-1 cell viability, EC50 from 8-point dilution (Resazurin); type: cell-based; settings: 100-0.78 μmol/L, read-out: EC50 Quantitation
Protocol: In order to assess the effect of the EBNA1 inhibitor at the cellular level, the cytotoxicity assay was performed. The EBNA1 inhibitor selectively killed EBV-positive cell lines ([…]-1 cells), but had no toxicity to EBV-negative cell lines (HONE1 cells and HK1 cells). In the test, 100 μL different cell lines were inoculated in a transparent 96-well plate, each well containing 5×10^3 […]-1 cells. After the cells were cultured in an incubator with 5% carbon dioxide at 37° C. for 24 hours, 10 μL compound at a concentration range from 1 mmol/L to 7.8 μmol/L was added into each well (8 points, 2-fold dilution, the final concentration was 100-0.78 μmol/L), and treated in the incubator with carbon dioxide at 37° C. for 72 hours. The cell viability was assessed using a redox indicator Resazurin. Specifically, 10 μL Resazurin at a concentration of 600 μmol/L was added into each well, and incubated at 37° C. for 3 hours, and a Tecan microplate reader was used to detect the fluorescence signal at an excitation wavelength of 560 nm and an emission wavelength of 590 nm. A software was used to fit the inhibition curve and calculate the concentration for 50% of maximal effect (EC50). The selectivity of compound activity was assessed by comparing the EC50 of EBV-positive and EBV-negative cell lines.

[3] = 50 μM compound, 72 hours, read-out: C666-1 cell viability single concentration (50 μM) inhibition rate, Ratio* (Inh %)
[4] = single concentration, read-out: Inhibition Rate (Inh %)

## COC(=O)c1cccc(N2CC(OC(=O)Nc3ccc(OC(F)(F)F)cc3)C2)c1-n1cccc1 [Example 153, Methyl 2-(1H-pyrrol-1-yl)-3-(3-(((4-(trifluoromethoxy)phenyl)carbamoyl)oxy)azetidin-1-yl)benzoate]
C666-1 cells [1]; [3]
  inhibition at 50 µM: 10 to 30%
C666-1 cells [1]; [4]
  inhibition at 50 µM: 10 to 30%
C666-1 cells [2]; Homo sapiens, C6661, 72 h
  EC50: 75 to 100 µM

## COC(=O)c1cccc(N2CC(OC(=O)NCc3ccc(C(F)(F)F)cc3)C2)c1-n1cccc1 [Example 154, Methyl 2-(1H-pyrrol-1-yl)-3-(3-(((4-(trifluoromethyl)benzyl)carbamoyl)oxy)azetidin-1-yl)benzoate]
C666-1 cells [1]; [3]
  inhibition at 50 µM: 10 to 30%
C666-1 cells [1]; [4]
  inhibition at 50 µM: 10 to 30%
C666-1 cells [2]; Homo sapiens, C6661, 72 h
  EC50: > 100 µM

## COC(=O)c1cccc(N2CC(=CC(=O)OC(C)(C)C)C2)c1-n1cccc1 [Example 189, Methyl 3-(3-(2-(tert-butoxy)-2-oxovinyl)azetidin-1-yl)-2-(1H-pyrrol-1-yl)benzoate]
C666-1 cells [1]; [3]
  inhibition at 50 µM: 10 to 30%
C666-1 cells [1]; [4]
  inhibition at 50 µM: 10 to 30%
C666-1 cells [2]; Homo sapiens, C6661, 72 h
  EC50: 75 to 100 µM

## COc1cccc(Oc2ccc(OC3CN(c4cccc(C(=O)O)c4-n4cccc4)C3)cc2)c1 [Example 197, 3-(3-(4-(3-methoxyphenoxy)phenoxy)azetidin-1-yl)-2-(1H-pyrrol-1-yl) benzoic acid]
C666-1 cells [1]; [3]
  inhibition at 50 µM: 10 to 30%
C666-1 cells [1]; [4]
  inhibition at 50 µM: 10 to 30%
C666-1 cells [2]; Homo sapiens, C6661, 72 h
  EC50: > 100 µM

## COC(=O)c1cccc(N2CC(Oc3ccc(COC(=O)OC4CCOCC4)cc3)C2)c1-n1cccc1 [Example 234, Methyl 3-(3-(4-(((((tetrahydro-2H-pyran-4-yl)oxy)carbonyl)oxy)methyl)phenoxy)azetidin-1-yl)-2-(1H-pyrrol-1-yl)benzoate]
C666-1 cells [1]; [3]
  inhibition at 50 µM: > 50%
C666-1 cells [1]; [4]
  inhibition at 50 µM: > 50%
C666-1 cells [2]; Homo sapiens, C6661, 72 h
  EC50: < 50 µM

## COC(=O)c1cccc(N2CC(Oc3ccc(C(=O)Nc4ccccc4)cc3)C2)c1-n1cccc1 [Example 263, Methyl 3-(3-(4-(phenylcarbamoyl)phenoxy)azetidin-1-yl)-2-(1H-pyrrol-1-yl)benzoate]
C666-1 cells [1]; [3]
  inhibition at 50 µM: 10 to 30%
C666-1 cells [1]; [4]
  inhibition at 50 µM: 10 to 30%
C666-1 cells [2]; Homo sapiens, C6661, 72 h
  EC50: > 100 µM

## CCNC(=O)c1ccc(OC2CN(c3cccc(C(=O)O)c3-n3cccc3)C2)cc1 [Example 264, 3-(3-(4-(ethylcarbamoyl)phenoxy)azetidin-1-yl)-2-(1H-pyrrol-1-yl)benzoic acid]
C666-1 cells [1]; [3]
  inhibition at 50 µM: < 10%
C666-1 cells [1]; [4]
  inhibition at 50 µM: < 10%
C666-1 cells [2]; Homo sapiens, C6661, 72 h
  EC50: > 100 µM

## O=C(O)c1cccc(N2CC(Oc3ccc(C(=O)N4CCOCC4)cc3)C2)c1-n1cccc1 [Example 266, 3-(3-(4-(morpholinyl-4-carbonyl)phenoxy)azetidin-1-yl)-2-(1H-pyrrol-1-yl)benzoic acid]
C666-1 cells [1]; [3]
  inhibition at 50 µM: < 10%
C666-1 cells [1]; [4]
  inhibition at 50 µM: < 10%
C666-1 cells [2]; Homo sapiens, C6661, 72 h
  EC50: > 100 µM

## O=C(O)c1cccc(N2CC(Oc3ccc(Oc4ccc(C(F)(F)F)cc4)cc3)C2)c1-n1cccc1 [Example 292, 3-(3-(4-(4-(trifluoromethyl)phenoxy)phenoxy)azetidin-1-yl)2-(1H-pyrrol-1-yl)benzoic acid]
C666-1 cells [1]; [3]
  inhibition at 50 µM: > 50%
C666-1 cells [1]; [4]
  inhibition at 50 µM: > 50%
C666-1 cells [2]; Homo sapiens, C6661, 72 h
  EC50: < 50 µM

## O=C(Nc1ccccc1)c1ccc(OC2CN(c3cccc(C(=O)O)c3-n3cccc3)C2)cc1 [Example 302, 3-(3-(4-(phenylcarbamoyl)phenoxy)azetidin-1-yl)-2-(1H-pyrrol-1-yl)benzoic acid]
C666-1 cells [1]; [3]
  inhibition at 50 µM: 10 to 30%
C666-1 cells [1]; [4]
  inhibition at 50 µM: 10 to 30%
C666-1 cells [2]; Homo sapiens, C6661, 72 h
  EC50: > 100 µM

## COC(=O)c1cccc(C#CN(Cc2ccccc2)S(C)(=O)=O)c1-n1cccc1 [Example 381, Methyl 3-((N-benzylmethylsulfonamido)ethynyl)-2-(1H-pyrrol-1-yl)benzoate]
C666-1 cells [1]; [3]
  inhibition at 50 µM: 30 to 50%
C666-1 cells [1]; [4]
  inhibition at 50 µM: 30 to 50%
C666-1 cells [2]; Homo sapiens, C6661, 72 h
  EC50: > 100 µM

## COC(=O)c1cccc(C#CN(C)S(=O)(=O)c2ccc(C)cc2)c1-n1cccc1 [Example 383]
C666-1 cells [1]; [3]
  inhibition at 50 µM: 10 to 30%
C666-1 cells [2]; 72 hours
  EC50: > 100 µM
C666-1 cells [2]; Homo sapiens, C6661, 72 h
  EC50: < 50 µM
